± gives the expanded uncertainty stated by the source.
Assay: molar heat capacity at constant pressure
Details: 101.33 kPa, Crystal, Small (less than 1 g) adiabatic calorimetry

C1C2CC3CC1CC(c1nnn[nH]1)(C2)C3 [5-(1-adamantyl)tetrazole]
Details	molar heat capacity at constant pressure [J/K/mol]
5 K	0.4912 ± 0.026
10 K	3.942 ± 0.085
15 K	9.695 ± 0.14
20 K	16.01 ± 0.17
25 K	22.15 ± 0.19
30 K	27.84 ± 0.2
35 K	32.99 ± 0.23
40 K	37.67 ± 0.25
45 K	42 ± 0.28
50 K	46.01 ± 0.3
60 K	53.34 ± 0.33
70 K	60.13 ± 0.37
80 K	66.67 ± 0.41
90 K	73.18 ± 0.45
100 K	79.7 ± 0.49
120 K	92.76 ± 0.55
140 K	106.3 ± 0.6
160 K	120.6 ± 0.7
180 K	136 ± 0.7
200 K	152.5 ± 0.8
220 K	170 ± 0.9
240 K	188.4 ± 1
260 K	207.4 ± 1.1
280 K	225.3 ± 1.2
298.15 K	240 ± 1.3
300 K	241.6 ± 1.3
320 K	256.9 ± 1.3
340 K	272 ± 1.4
360 K	287.6 ± 1.5
370 K	295.6 ± 1.5

— the NIST ThermoML archive (doi:10.1016/j.tca.2014.07.018)
